Laboratory results: patent US4603016A, “Cryogenic brine separation of water and isocyanates” (E. I. Du Pont de Nemours and Company, priority 1985, dated 1986)

Assay: storage stability of isolated MIC preparations (GC determination of MIC content immediately following collection and after storage for two weeks)
Format: physicochemical
Details: for % MIC After Storage / % MIC As Isolated: GC; for % MIC After Storage: after storage for two weeks; for % MIC As Isolated: immediately following collection
Experimental: This example illustrates the stability of MIC preparations isolated by the process of the present invention. The procedure described in Example 1 was substantially repeated at MMF liquid feed rates of 2 mL/min. As described in Example 3, samples of the product of the brine condenser were collected for one hour periods, weighed, and yields estimated. Each sample was then analyzed by GC to determine MIC content immediately following collection, and again after storage for two weeks.

CN=C=O [MIC, methyl isocyanate]
% MIC After Storage (1st hr sample): 92.3% | % MIC As Isolated (1st hr sample): > 98% | % MIC After Storage (2nd hr sample): 92.3% | % MIC As Isolated (2nd hr sample): > 98% | % MIC After Storage (3rd hr sample): 93.1% | % MIC As Isolated (3rd hr sample): > 98% | % MIC After Storage (4th hr sample): 95.0% | % MIC As Isolated (4th hr sample): > 98% | % MIC After Storage (5th hr sample): 95.4% | % MIC As Isolated (5th hr sample): > 98% | degradation of product MIC during storage (storage for two weeks, all samples): minimal degradation
